Each structure is given as a SMILES string. Results filed as inconclusive are left out.

Our source for the EC50 values is PubChem BioAssay AID2044 (Broad Institute, 2009).

The subject of this experiment is T. cruzi beta-gal in NIH3T3, GalScreen luminescence, 90 h. In words: Trypanosoma cruzi growth suppression in host cells – NIH3T3 host cells, beta-gal luminescence, confirmation (AID 2044).

For `C#CCOCCOCCOCCNc1nc(N2CCN(C(=O)CCCCCCCCCCNC(=O)Cn3cc(C[C@@H](C)O)nn3)CC2)nc(N2CCN(C(=O)CCCCCCCCCCNC(=O)[C@H](CCCN=C(N)N)n3cc(C[C@@H](C)CC)nn3)CC2)n1`, the EC50 was 0.967 µM.

Usually EC50 stands for the concentration at which the effect is half-maximal.
